Experimental data reported in ChEMBL document CHEMBL1149702, “Toward novel HIV-1 integrase binding inhibitors: molecular modeling, synthesis, and biological studies” (Bioorg Med Chem Lett, 2007).

target: Human immunodeficiency virus type 1 integrase (Human immunodeficiency virus 1, UniProt Q7ZJM1); experiment: Inhibition of HIV1 integrase
Sequence (Q7ZJM1 whole entry): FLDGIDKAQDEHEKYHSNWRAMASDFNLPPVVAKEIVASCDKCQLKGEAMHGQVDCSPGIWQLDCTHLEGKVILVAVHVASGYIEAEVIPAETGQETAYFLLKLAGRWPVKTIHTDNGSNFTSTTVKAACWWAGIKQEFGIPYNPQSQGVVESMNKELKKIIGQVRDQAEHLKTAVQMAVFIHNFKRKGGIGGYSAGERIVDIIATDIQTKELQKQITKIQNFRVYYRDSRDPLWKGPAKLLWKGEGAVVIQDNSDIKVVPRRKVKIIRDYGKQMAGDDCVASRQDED

| SMILES | IC50 [µM] |
| --- | --- |
| Cc1c(-c2ccc(/C=C/c3nc4ccccc4[nH]3)o2)cccc1[N+](=O)[O-] | > 290 |
| Cc1ccc2[nH]c(C(C#N)=Cc3ccc(-c4ccc(Cl)cc4C(=O)O)o3)nc2c1 | 36.2 |
| CC(C)(C)OC(=O)Nc1ccc(-c2ccc(C=C(C#N)c3nc4ccccc4[nH]3)o2)cc1 | > 235 |
| NC(=O)/C(=C\c1ccc(-c2ccc(Cl)cc2[N+](=O)[O-])o1)c1nc2ccccc2[nH]1 | > 244 |
| C/C(=C\c1ccc(-c2ccc(Cl)cc2[N+](=O)[O-])o1)c1nc2ccccc2[nH]1 | > 263 |
| N#C/C(=C\c1ccc(-c2c(Cl)cccc2C(F)(F)F)o1)c1nc2ccccc2s1 | > 232 |
| FC(F)(F)c1cccc(Cl)c1-c1ccc(/C=C/c2nc3ccccc3[nH]2)o1 | > 257 |
| N#C/C(=C\c1ccc(-c2c(Cl)cccc2C(F)(F)F)o1)c1nc2ccccc2o1 | > 241 |
| O=[N+]([O-])c1cc(Cl)ccc1-c1ccc(/C=C/c2nc3ccccc3[nH]2)o1 | > 273 |
| O=[N+]([O-])c1ccccc1-c1ccc(/C=C/c2nc3ccccc3[nH]2)o1 | > 302 |
| N#C/C(=C\c1ccc(-c2ccc(Cl)cc2[N+](=O)[O-])o1)c1nc2ccccc2s1 | > 245 |
| COc1c(C)cc(-c2ccc(/C=C/c3nc4ccccc4[nH]3)o2)cc1C | > 291 |

Now from value to compound:

| IC50 [µM] | SMILES |
| --- | --- |
| 12 | O=[N+]([O-])c1cccc(-c2ccc(/C=C/c3nc4ccccc4[nH]3)o2)c1 |
| > 281 | N#CC(=Cc1ccc(-c2ccc(C(=O)O)cc2)o1)c1nc2ccccc2[nH]1 |
| 68.7 | N#CC(=Cc1ccc(-c2ccc(O)c(C(=O)O)c2)o1)c1nc2ccccc2[nH]1 |
| > 268 | N#C/C(=C\c1ccc(-c2cccc([N+](=O)[O-])c2)o1)c1nc2ccccc2s1 |
| > 268 | N#CC(=Cc1ccc(-c2ccc(F)cc2C(=O)O)o1)c1nc2ccccc2[nH]1 |
| 58.7 | N#CC(=Cc1ccc(-c2cc([N+](=O)[O-])ccc2Cl)o1)c1nc2ccccc2[nH]1 |
| 85.8 | Cc1c(-c2ccc(C=C(C#N)c3nc4ccccc4[nH]3)o2)cccc1[N+](=O)[O-] |
| 31.3 | N#CC(=Cc1ccc(-c2cc(C(F)(F)F)ccc2Cl)o1)c1nc2ccccc2[nH]1 |
| > 280 | N#C/C(=C\c1ccc(-c2cccc([N+](=O)[O-])c2)o1)c1nc2ccccc2o1 |
| > 281 | N#CC(=Cc1ccc(-c2cccc([N+](=O)[O-])c2)o1)c1nc2ccccc2[nH]1 |
| 90.4 | N#CC(=Cc1ccc(-c2ccc(Cl)c(C(=O)O)c2)o1)c1nc2ccccc2[nH]1 |
| > 271 | COc1c(C)cc(-c2ccc(C=C(C#N)c3nc4ccccc4[nH]3)o2)cc1C |
| > 289 | N#CC(=Cc1ccc(-c2ccc(Cl)cc2)o1)c1nc2ccccc2[nH]1 |
| 164 | N#CC(=Cc1ccc(-c2cccc(C(=O)O)c2)o1)c1nc2ccccc2[nH]1 |
| 39.8 | Cc1ccc(C(=O)O)cc1-c1ccc(C=C(C#N)c2nc3ccccc3[nH]2)o1 |
| > 281 | N#CC(=Cc1ccc(-c2ccccc2[N+](=O)[O-])o1)c1nc2ccccc2[nH]1 |
| 70.3 | N#CC(=Cc1ccc(-c2ccc(C(=O)O)c(O)c2)o1)c1nc2ccccc2[nH]1 |
| > 292 | COc1ccc(-c2ccc(C=C(C#N)c3nc4ccccc4[nH]3)o2)cn1 |
